Data as given in patent publication US20250064773A1, “TARGETING ERO1 ALPHA WITH AURONE DERIVATIVES” (West Virginia University Board of Governors on behalf of …, priority 2021, published 2025).
Values belong to the compound of their own block, whether it stands above or below them.

Columns and labels:
purified human ERO1α = target: T1, purified human ERO1α (Homo sapiens, UniProt Q96HE7, C104A/C131A/C166A); assay: Recombinant ERO1α enzyme assay (Amplex Red); assay type: biochemical; conditions: for inhibition at 10 µM: average of N = 3 ± S.D., read-out: % inhibition (10 μM) of ERO1α enzyme activity compared to vehicle control
T1 construct: made in house
T1 sequence (Q96HE7 22-468 C104A/C131A/C166A): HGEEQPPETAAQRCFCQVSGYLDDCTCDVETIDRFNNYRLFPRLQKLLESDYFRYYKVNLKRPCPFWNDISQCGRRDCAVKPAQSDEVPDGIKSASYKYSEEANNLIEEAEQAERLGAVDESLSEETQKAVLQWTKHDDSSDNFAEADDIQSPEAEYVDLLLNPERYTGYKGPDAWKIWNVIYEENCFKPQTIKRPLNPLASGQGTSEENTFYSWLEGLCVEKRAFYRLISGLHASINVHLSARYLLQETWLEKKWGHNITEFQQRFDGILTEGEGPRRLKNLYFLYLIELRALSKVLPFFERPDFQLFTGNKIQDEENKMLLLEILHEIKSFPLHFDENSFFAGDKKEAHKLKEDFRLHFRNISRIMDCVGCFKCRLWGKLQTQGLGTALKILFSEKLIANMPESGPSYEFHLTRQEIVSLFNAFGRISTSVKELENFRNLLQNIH
Method: Based on previous work which established an aurone chemical class of compounds as FAD containing enzyme inhibitors^37, we evaluated sulfuretin analogs for ERO1α enzyme inhibition.
Quantification of enzymatic activity of ERO1α was performed using the Amplex Red as previously described^6.

LSD-1 = LSD-1 (Homo sapiens, UniProt O60341); conditions: cited from earlier work
PC-9 cells = assay: Soft agar clonogenic assay, PC-9; assay type: cell-based; conditions: 14 days, 3.75-15 μM
Method: (§1) We utilized an MTT assay to determine the potency of the compounds for inhibiting cell growth. […] We next asked whether T151742 induced inhibition of cell growth was dependent on ERO1α expression. As shown in FIG. 6C two ERO1α deleted clones in the PC-9 cell line were isolated. Using an MTT assay to determine overall cellar viability, a non-targeted control (scramble), and both ERO1α knockout clones was subjected to treatment with T151742 for 72 hours (See FIG. 6D). […] Though only slight differences were observed between T151742 and EN-460 we tested the effects of these compounds in a clonogenic assay which is a better test for inhibition of self-renewal.
FIG. 7A and FIG. 7B show 1000 cells/well were plated in a 12-well plate in triplicate with either 0.5% DMSO, T151742, or EN-460 and allowed to form colonies for 14 days. Colonies were subsequently stained with 0.01% Crystal Violet, imaged, and quantified using ImageJ. […] Colonies were stained with 0.01% Crystal Violet, imaged, and quantified using ImageJ.
Cell Lines: PC-9 cell line used was obtained from Sigma Aldrich and grown in RPMI 1640 medium with 10% fetal bovine serum and 1% penicillin/streptomycin. […] Plate was then read on the BioTek Cytation 5 at 530/590 nm. […] Plate was then read at 570 nm. […] Images were then quantified using ImageJ. […]

MAO-A = target: T2, MAO-A (Homo sapiens, UniProt P21397); conditions: cited from earlier work
T2 sequence (P21397 1-527): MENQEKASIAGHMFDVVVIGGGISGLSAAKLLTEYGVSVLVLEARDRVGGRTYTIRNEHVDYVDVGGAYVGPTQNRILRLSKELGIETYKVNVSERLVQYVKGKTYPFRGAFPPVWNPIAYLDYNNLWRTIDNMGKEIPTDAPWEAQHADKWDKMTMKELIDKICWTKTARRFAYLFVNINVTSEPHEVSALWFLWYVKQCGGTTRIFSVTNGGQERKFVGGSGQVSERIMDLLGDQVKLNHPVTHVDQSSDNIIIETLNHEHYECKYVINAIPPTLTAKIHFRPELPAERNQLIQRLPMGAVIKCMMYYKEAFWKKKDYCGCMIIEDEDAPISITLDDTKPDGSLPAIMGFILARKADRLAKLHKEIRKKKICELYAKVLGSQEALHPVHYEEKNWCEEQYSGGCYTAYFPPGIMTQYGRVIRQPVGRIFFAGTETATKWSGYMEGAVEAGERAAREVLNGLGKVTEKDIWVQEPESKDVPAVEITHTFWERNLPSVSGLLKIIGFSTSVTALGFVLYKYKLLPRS

MAO-B = target: T3, MAO-B (Homo sapiens, UniProt P27338); conditions: cited from earlier work
T3 sequence (P27338 1-520): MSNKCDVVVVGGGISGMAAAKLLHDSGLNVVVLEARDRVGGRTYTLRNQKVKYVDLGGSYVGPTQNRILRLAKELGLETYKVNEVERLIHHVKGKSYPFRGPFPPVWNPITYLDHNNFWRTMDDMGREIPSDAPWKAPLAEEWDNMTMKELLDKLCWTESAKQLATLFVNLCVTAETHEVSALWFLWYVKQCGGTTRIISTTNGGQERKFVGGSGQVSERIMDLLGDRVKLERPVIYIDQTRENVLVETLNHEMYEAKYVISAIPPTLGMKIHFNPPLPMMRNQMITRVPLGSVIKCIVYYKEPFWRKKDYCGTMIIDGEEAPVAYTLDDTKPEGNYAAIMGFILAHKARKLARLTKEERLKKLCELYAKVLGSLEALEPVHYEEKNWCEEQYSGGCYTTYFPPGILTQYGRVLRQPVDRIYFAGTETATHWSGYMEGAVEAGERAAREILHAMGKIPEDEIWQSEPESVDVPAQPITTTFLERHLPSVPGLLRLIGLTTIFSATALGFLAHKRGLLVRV

[1] = system: PC-9 non-small cell lung cancer cell line; assay: MTT viability assay, PC-9; assay type: cell-based; conditions: 72 h, read-out: IC50, MTT assay, PC-9
Method: as §1
Cell Lines: PC-9 cell line used was obtained from Sigma Aldrich and grown in RPMI 1640 medium with 10% fetal bovine serum and 1% penicillin/streptomycin. HCC4006, U266, MM1.s, and Beas-2B cell lines were obtained from ATCC and cultured in either RPMI 1640 or DMEM with 10% fetal bovine serum and 1% penicillin/streptomycin. All cell lines were also checked for mycoplasma every six months and subjected to short tandem repeat (STR) analysis for cell line validation. CRISPR Cas9: CRISPR Guide RNA 2 targeting ERO1α and CRISPR Guide RNA 4 were purchased from Genscript in the pLentiCRISPR V2 plasmid containing puromycin/ampicillin selection marker. Lentivirus was made from HEK 293T cells by co-transfection with GuideRNA of interest, pVSVG, and pPAX2 plasmids. Lentivirus was collected after 48 hours and concentrated using 40% PEG8000. […] Plate was then read on the BioTek Cytation 5 at 530/590 nm. […] Plate was then read at 570 nm. Treated wells were all compared to DMSO control wells to calculate percent growth inhibition and the IC50 was calculated using GraphPad (log(inhibitor) vs growth inhibition). […] Images were then quantified using ImageJ. […] Cells were aliquoted at 1 million cells per PCR tube in PBS and heated in Bio-Rad T100 thermal cycler at indicated temperatures (RT, 46° C., 48° C., 50° C., 52° C., 54° C., 56°, 58° C., and 60° C.) for 3 minutes and aggregation temperature was determined by western blot analysis. […]

SMILES: N[C@@H]1C[C@H]1c1ccccc1 (racemic) [tranylcypromine, reference compound]
inhibition of ERO1α activity (concentration response, FIG. 8) (purified human ERO1α; covalent modifiers of FAD): did not inhibit

SMILES: O=C(O)c1cc(N2N=C(C(F)(F)F)/C(=C/c3ccc(-c4ccccc4)o3)C2=O)ccc1Cl [EN-460, reference compound]
inhibition of LSD-1 (LSD-1): inhibits
activity in clonogenicity assay (colony number) (PC-9 cells): devoid of activity
IC50 (purified human ERO1α; purified human ERO1α 0.0625 mg/mL, PDI 0.0625 mg/mL, mean ± S.D., N=3): 16.5 ± 3.47 µM
inhibition of / activity against MAO-A (MAO-A): inhibits
inhibition of / activity against MAO-B (MAO-B): inhibits

IC50 [1]: 32.4 ± 6.01 µM
SMILES: O=C(O)c1ccc(/C=C2\Oc3cc(O)ccc3C2=O)cc1 [SR-F-114]

inhibition at 10 µM (purified human ERO1α): 20.7 ± 4.92%
SMILES: O=C1/C(=C/c2c(F)cccc2Cl)Oc2cc(O)ccc21 [SR-F-125]

inhibition at 10 µM (purified human ERO1α): 38.7 ± 1.56%
SMILES: O=C1/C(=C/c2ccc(-c3ccccc3)cc2)Oc2cc(O)ccc21 [SR-F-126]
